The source made the active and inactive calls. The calls are words filed in the database; no cut-off is given here.
Experiments:
Melanocortin receptor 3 = Melanocortin receptor 3 (Homo sapiens, UniProt P41968); assay: Displacement of [125I]-NDP-alpha-MSH from human MC3R expressed in CHO cells measured for 2 hrs by microbeta counter analysis; assay type: cell-based
[1] = molecular target: Voltage-dependent L-type calcium channel subunit alpha-1C (Homo sapiens, UniProt Q13936); assay: Inhibition of Cav1.2 (unknown origin)
[2] = AUClast in Wistar Han rat at 1 mg/kg, iv measured at 0.033 to 24 hrs by LC-MS/MS analysis; assay type: ADME, organism-based; set-up: dose 1 mg/kg, time upper 24 hrs, time lower 0.033 hrs, route iv; conditions: in vivo
[3] = Half life in Wistar Han rat at 1 mg/kg, iv measured at 0.033 to 24 hrs by LC-MS/MS analysis; assay type: ADME, organism-based; conditions: in vivo, time 0.033-24 hrs
Mus musculus [4] = assay: Effect on body weight in anorexia/cachexia mouse model assessed as body weight gain administered twice a day for 20 days and measured at 1 to 21 days; assay type: functional, organism-based; conditions: dose 0.3-10 mg/kg, time 1-21 day
[5] = Metabolic stability in human hepatocyte assessed as intrinsic clearance measured per million cells HPLC/UV/MS analysis; assay type: ADME, cell-based; conditions: hepatocytes, read-out: CLH
[6] = Tmax in Beagle dog at 1 mg/kg, po measured at 0.25 to 24 hrs by LC-MS/MS analysis; assay type: ADME, organism-based, Canis lupus familiaris; conditions: in vivo, time 0.25-24 hrs
[7] = AUClast in Wistar Han rat at 5 mg/kg, po measured at 0.083 to 24 hrs by LC-MS/MS analysis; assay type: ADME, organism-based; set-up: time upper 24 hrs, dose 5 mg/kg, time lower 0.083 hrs, route po; conditions: in vivo
[8] = Half life in Wistar Han rat at 5 mg/kg, po measured at 0.083 to 24 hrs by LC-MS/MS analysis; assay type: ADME, organism-based; conditions: in vivo, time 0.083-24 hrs
[9] = Displacement of [125I]-NDP-alpha-MSH from dog MC4R expressed in CHO cells by microbeta counter analysis; assay type: cell-based, Canis lupus familiaris
Mus musculus [10] = assay: Effect on body weight in anorexia/cachexia mouse model assessed as increase in food intake administered twice a day for 20 days and measured at 1 to 21 days; assay type: functional, organism-based; conditions: dose 0.3-10 mg/kg, time 1-21 day
[11] = AUC (0 to infinity) in Wistar Han rat at 1 mg/kg, iv measured at 0.033 to 24 hrs by LC-MS/MS analysis; assay type: ADME, organism-based; set-up: time upper 24 hrs, dose 1 mg/kg, time lower 0.033 hrs, route iv; conditions: in vivo
[12] = AUClast in Beagle dog at 1 mg/kg, po measured at 0.25 to 24 hrs by LC-MS/MS analysis; assay type: ADME, organism-based, Canis lupus familiaris; set-up: time upper 24 hrs, dose 1 mg/kg, time lower 0.25 hrs, route po; conditions: in vivo
Melanocortin receptor 5 [13] = molecular target: T1, Melanocortin receptor 5 (Homo sapiens, UniProt P33032); assay: Agonist activity at human MC5R expressed in CHO cells assessed as increase in alpha-MSH induced cAMP level measured for 60 mins; assay type: functional, cell-based
[14] = molecular target: Voltage-gated inwardly rectifying potassium channel KCNH2 (Homo sapiens, UniProt Q12809); assay: Inhibition of hERG expressed in CHO cells stably at -80 mV holding potential by automated patch clamp method; assay type: toxicity, cell-based
[15] = AUC (0 to infinity) in Beagle dog at 1 mg/kg, po measured at 0.25 to 24 hrs by LC-MS/MS analysis; assay type: ADME, organism-based, Canis lupus familiaris; set-up: time upper 24 hrs, time lower 0.25 hrs, dose 1 mg/kg, route po; conditions: in vivo
[16] = Oral bioavailability in Beagle dog at 1 mg/kg measured at 0.25 to 24 hrs by LC-MS/MS analysis; assay type: ADME, organism-based, Canis lupus familiaris; conditions: in vivo, time 0.25-24 hrs
Melanocortin receptor 5 [17] = molecular target: T1, Melanocortin receptor 5; assay: Displacement of [125I]-NDP-alpha-MSH from human MC5R expressed in CHO cells measured for 2 hrs by microbeta counter analysis; assay type: cell-based
[18] = molecular target: Dual 3',5'-cyclic-AMP and -GMP phosphodiesterase 11A (Homo sapiens, UniProt Q9HCR9); assay: Inhibition of human PDE11A4
Sequence of Dual 3',5'-cyclic-AMP and -GMP phosphodiesterase 11A (Q9HCR9 whole entry): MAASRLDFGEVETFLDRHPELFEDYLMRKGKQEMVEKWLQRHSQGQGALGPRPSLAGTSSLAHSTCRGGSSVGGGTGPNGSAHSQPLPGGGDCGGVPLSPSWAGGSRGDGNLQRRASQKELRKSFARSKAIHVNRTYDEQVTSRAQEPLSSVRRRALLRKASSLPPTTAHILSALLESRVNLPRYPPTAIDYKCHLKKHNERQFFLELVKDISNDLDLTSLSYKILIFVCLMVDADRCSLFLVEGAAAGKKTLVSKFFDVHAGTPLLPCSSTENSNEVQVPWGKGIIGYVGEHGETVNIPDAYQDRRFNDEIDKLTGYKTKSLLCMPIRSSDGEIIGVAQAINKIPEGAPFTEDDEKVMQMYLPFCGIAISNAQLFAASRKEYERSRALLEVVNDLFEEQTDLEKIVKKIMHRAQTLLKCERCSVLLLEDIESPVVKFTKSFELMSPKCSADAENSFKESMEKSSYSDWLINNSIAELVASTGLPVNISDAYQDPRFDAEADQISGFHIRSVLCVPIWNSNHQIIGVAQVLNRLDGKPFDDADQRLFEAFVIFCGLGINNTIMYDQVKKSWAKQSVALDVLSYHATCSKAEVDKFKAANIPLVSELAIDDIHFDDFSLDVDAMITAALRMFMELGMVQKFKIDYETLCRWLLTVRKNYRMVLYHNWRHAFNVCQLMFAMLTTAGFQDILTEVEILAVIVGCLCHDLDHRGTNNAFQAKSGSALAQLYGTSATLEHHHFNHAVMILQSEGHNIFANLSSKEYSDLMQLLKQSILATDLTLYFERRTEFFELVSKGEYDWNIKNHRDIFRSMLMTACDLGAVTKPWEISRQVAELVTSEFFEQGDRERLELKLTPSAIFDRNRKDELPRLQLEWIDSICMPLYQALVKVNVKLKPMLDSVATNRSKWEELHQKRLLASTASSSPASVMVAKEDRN

T1 sequence (P33032 whole entry): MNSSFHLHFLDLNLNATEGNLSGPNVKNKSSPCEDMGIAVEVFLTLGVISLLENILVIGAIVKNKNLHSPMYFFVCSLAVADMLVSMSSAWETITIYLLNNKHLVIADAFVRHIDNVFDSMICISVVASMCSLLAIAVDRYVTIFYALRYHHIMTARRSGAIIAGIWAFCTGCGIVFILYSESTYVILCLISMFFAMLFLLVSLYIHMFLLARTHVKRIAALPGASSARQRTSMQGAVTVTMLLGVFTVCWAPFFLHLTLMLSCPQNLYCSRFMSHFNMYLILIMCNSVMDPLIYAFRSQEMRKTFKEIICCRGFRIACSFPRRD
Sequence of Voltage-gated inwardly rectifying potassium channel KCNH2 (Q12809 whole entry): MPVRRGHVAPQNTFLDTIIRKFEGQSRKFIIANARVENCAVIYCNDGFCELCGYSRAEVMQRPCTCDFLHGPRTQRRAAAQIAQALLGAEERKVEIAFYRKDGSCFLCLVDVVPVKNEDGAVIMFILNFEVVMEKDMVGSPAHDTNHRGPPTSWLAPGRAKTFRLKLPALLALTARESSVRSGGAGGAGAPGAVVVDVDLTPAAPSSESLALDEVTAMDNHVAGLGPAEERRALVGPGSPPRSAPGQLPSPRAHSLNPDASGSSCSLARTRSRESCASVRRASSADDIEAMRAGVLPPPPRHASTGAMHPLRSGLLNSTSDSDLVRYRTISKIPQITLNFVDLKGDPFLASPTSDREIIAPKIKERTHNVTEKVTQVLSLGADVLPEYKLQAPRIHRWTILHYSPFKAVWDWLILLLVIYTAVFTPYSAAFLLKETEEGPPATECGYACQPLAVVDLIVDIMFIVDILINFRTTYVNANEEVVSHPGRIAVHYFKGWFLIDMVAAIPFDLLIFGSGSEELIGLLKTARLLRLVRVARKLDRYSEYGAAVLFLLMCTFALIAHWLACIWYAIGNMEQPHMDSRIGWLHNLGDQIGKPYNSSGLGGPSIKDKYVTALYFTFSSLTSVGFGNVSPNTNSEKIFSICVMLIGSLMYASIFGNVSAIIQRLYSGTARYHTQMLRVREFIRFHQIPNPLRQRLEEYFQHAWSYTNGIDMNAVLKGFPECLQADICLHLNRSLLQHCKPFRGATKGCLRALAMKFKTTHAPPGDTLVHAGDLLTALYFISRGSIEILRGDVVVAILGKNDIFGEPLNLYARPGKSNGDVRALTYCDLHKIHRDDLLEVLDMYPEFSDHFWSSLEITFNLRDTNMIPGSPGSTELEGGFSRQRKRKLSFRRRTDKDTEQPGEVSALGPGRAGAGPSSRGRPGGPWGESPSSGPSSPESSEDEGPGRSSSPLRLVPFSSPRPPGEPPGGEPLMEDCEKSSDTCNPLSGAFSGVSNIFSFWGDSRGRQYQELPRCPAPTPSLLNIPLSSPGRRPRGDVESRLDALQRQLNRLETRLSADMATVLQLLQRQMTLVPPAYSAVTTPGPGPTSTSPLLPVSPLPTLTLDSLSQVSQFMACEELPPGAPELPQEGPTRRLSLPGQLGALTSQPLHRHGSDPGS
Sequence of Voltage-dependent L-type calcium channel subunit alpha-1C (Q13936 whole entry): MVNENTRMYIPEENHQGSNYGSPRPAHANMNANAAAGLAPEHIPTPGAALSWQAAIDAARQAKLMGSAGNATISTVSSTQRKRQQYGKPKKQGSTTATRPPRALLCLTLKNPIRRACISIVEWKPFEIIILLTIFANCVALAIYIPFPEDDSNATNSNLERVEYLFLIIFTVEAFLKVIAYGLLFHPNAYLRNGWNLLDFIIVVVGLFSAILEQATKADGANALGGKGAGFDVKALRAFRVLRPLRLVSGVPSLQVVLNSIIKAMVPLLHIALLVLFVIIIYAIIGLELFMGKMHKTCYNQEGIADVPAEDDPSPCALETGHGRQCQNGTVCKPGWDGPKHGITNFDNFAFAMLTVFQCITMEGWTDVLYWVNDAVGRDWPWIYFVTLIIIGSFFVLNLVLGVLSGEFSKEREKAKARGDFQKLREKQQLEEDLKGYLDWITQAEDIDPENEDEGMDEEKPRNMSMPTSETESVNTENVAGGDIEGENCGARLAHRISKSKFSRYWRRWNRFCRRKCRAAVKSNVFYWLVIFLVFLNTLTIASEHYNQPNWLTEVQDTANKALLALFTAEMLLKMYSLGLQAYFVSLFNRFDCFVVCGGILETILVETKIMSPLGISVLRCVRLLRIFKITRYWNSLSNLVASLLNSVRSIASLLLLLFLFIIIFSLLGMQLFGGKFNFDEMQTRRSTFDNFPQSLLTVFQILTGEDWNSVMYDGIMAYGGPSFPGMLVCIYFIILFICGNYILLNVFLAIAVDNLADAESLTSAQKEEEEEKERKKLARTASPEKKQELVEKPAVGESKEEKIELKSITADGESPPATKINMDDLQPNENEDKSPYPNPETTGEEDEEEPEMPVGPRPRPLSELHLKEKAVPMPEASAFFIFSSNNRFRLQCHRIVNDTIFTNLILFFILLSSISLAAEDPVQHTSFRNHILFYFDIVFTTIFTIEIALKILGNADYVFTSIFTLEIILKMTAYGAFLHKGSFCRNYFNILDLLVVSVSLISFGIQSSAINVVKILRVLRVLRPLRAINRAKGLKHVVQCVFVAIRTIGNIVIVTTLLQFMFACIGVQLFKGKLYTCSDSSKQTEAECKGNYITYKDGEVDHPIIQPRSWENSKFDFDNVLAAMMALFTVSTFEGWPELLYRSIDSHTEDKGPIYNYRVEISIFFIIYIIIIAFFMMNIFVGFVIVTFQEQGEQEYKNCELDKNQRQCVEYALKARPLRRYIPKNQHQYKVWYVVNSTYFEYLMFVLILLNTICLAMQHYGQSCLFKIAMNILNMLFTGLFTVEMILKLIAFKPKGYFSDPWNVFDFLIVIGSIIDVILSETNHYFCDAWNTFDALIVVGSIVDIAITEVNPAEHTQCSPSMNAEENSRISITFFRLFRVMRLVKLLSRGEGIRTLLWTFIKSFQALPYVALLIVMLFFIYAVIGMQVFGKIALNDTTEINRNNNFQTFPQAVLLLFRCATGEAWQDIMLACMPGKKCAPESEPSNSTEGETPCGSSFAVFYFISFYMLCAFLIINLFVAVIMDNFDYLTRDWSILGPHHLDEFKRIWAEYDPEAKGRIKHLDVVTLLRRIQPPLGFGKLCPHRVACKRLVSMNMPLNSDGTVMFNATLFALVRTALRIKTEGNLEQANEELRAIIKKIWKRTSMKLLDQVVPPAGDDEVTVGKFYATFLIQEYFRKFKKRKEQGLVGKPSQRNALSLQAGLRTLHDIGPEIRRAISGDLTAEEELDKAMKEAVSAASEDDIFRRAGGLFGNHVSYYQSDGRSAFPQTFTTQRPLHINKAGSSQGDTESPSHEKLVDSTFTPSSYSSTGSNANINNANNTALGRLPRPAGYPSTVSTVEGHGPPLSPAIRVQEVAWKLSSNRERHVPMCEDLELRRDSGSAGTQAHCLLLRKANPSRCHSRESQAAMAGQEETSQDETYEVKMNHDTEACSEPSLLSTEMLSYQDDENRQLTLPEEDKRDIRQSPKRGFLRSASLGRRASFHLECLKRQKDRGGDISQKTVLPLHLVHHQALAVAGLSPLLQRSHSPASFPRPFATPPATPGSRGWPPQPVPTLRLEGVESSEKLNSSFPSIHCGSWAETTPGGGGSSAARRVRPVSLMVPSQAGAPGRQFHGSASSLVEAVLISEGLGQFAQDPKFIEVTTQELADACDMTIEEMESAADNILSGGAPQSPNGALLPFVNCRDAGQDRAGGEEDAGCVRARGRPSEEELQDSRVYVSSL
Sequence of Melanocortin receptor 3 (P41968 whole entry): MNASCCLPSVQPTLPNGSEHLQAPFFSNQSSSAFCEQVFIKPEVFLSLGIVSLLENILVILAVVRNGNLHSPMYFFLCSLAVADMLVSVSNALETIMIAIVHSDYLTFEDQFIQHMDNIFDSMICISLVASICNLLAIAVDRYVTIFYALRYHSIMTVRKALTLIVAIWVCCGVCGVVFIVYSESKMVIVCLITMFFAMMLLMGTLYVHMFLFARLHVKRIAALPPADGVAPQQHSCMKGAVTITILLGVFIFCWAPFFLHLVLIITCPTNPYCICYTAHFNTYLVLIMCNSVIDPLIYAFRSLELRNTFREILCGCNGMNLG

Ki (Melanocortin receptor 3): 340 nM
AUC(0-t) [2]: 780 ng·h/mL
half-life [3]: 60 min
hepatocyte CLint [5]: 12 µL/min/1e6 cells
Tmax [6]: 22.8 min
AUC(0-t) [7]: 1110 ng·h/mL
half-life [8]: 58.8 min
AUC(0-inf) [11]: 785 ng·h/mL
AUC(0-t) [12]: 4580 ng·h/mL
Activity (Melanocortin receptor 5 [13]): inactive
AUC [15]: 4610 ng·h/mL
F [16]: 93%
Ki (Melanocortin receptor 5 [17]): 840 nM
IC50 [18]: > 50000 nM
SMILES: COc1cc([C@@H](C)C(=O)N2CC[C@@]3(COc4cc(-c5ncccn5)c(C)nc4N3)C2)c(F)cn1
IC50 [1]: > 100000 nM
Activity (Mus musculus [4]): Dose-Dependent Effect
Ki [9]: 0.094 nM
Activity (Mus musculus [10]): Dose-Dependent Effect
IC50 [14]: 27000 nM

From ChEMBL document CHEMBL5316345, “Discovery of the Potent and Selective MC4R Antagonist PF-07258669 for the Potential Treatment of Appetite Loss” (J Med Chem, 2023)
